The test system of data set [1] is TNFalpha. The experiment in a line: Inhibition of lipopolysaccharide-induced synthesis and liberation of TNFalpha in human mononuclear blood cells (sandwich enzyme immuno test). In kind it is cell-based. To be noted: for activity at 10 µM: 0.01 mmol/l; for activity at 100 µM: 0.1 mmol/l; for inhibitory effect on the synthesis and liberation of cytokines from human blood cells / effect on the TNFalpha level: in words; for effect on the TNFalpha level: experiments in Tab. 1. How it is done:
The cell fraction which was visible as a white ring at the phase boundary was removed with the aid of a syringe, diluted 1:1 (v/v) with PM-16 buffer (from Serva Feinbiochemica GmbH & Co. KG, Heidelberg) and then centrifuged once again, as above, for 10 min. […] Using a cell counter (type IT, from Coulter Diagnostics, Krefeld), the cell suspension, which is composed of about 90% lymphocytes and 10% monocytes, was adjusted to about 5 million cells/ml. Cell viability was monitored before and after the inhibition experiments using the known lactate dehydrogenase method.
The synthesis and liberation of cellular TNFalpha was induced by adding a solution of 500 ng of lipopolysaccharide (Salmonella abortus equi, Sigma GmbH, Deisenhofen) in 0.01 ml of dimethyl sulfoxide/water (1:10, v/v) to 0.48 ml of the above-described cell fraction. At the same time, a solution of leflunomide or leflunomide metabolite in 0.01 ml of dimethylsulfoxide (for the final concentration in each case, see Tab. 1) was added to the cell fraction and the mixture was left at 37° C. for 20 h in a commercially available incubator. After cooling down to 0° C., the samples were centrifuged for 1 min. in a bench centrifuge. and in each case 0.025 ml aliquots of the supernatant were examined for their TNFalpha content using a "sandwich" enzyme immuno test kit (from Biermann GmbH, Bad Nauheim) in accordance with the manufacturer's instructions. The control values were determined without the addition of leflunomide or its metabolites and set at 100%. In particular, any possible influence of dimethylsulfoxide on the TNFalpha level was excluded by appropriate comparative measurements.

Data set [2] can be described thus: Metabolism of leflunomide in the test sample (mononuclear cell fraction), HPLC. In kind it is in vitro ADME, human. Particulars: human, mononuclear cells; mononuclear cell fraction, 37° C., HPLC; read-out: half life of metabolism of leflunomide to its metabolites (converted).
Data set [3] deals with mononuclear cells. The data set is described as above. Format: in vitro ADME, human. Particulars: in words; isolated mononuclear blood cells.
The mark [4] stands for this setting: Homo sapiens, LPS 500 ng, 37° C., 20 h, control = 100%, read-out: TNFalpha in the supernatant % +/- standard deviation.

The values that follow come from patent publication US5547970A, “Use of leflunomide for inhibiting tumor necrosis factor alpha” (priority 1993, dated 1996).

“Also recorded” adds a separate entry of the source.

The half-life is the time needed for the level to fall by half in the phase considered.

As for `Cc1oncc1C(=O)Nc1ccc(C(F)(F)F)cc1` [Leflunomide, N-(4-trifluoromethylphenyl)-5-methylisoxazole-4-carboxamide], in data set [1] (setting [4]), the activity at 10 µM was 100 ± 15% and the activity at 100 µM worked out at 28 ± 5%. In data set [1] (Homo sapiens, 0.05 mmol/l, LPS 500 ng, 37° C., 20 h, control = 100%, read-out: TNFalpha in the supernatant % +/- standard deviation), the activity at 50 µM was 35%. In addition, in data set [1], the “inhibitory effect on the synthesis and liberation of cytokines from human blood cells” value is given as “strong inhibitory effect”; the “effect on the TNFalpha level” value is reported as “clearly lowered”. Moreover, the half-life in data set [2] is about 10 h. In addition, in data set [3], the “metabolism of leflunomide under the experimental conditions” value is “did not, to any appreciable extent, metabolize; also recorded: only very slowly; also recorded: no appreciable metabolism”.
On to `C/C(O)=C(\C#N)C(=O)Nc1ccc(C(F)(F)F)cc1` [Leflunomide metabolite, N-(4-trifluoromethylphenyl)-2-cyano-3-hydroxycrotonamide], for which, in data set [1] (setting [4]), the activity at 10 µM turned out to be 102 ± 12% and the activity at 100 µM came out at 105%. Besides, in data set [1], the “inhibitory effect on the synthesis and liberation of cytokines from human blood cells” value was “does not exhibit this advantageous effect”; the “effect on the TNFalpha level” value is “practically no effect on the TNFalpha level”.
